Measurements reported in patent US10183155B2, “Implantable devices and methods for evaluation of active agents” (Kibur Medical, Inc., priority 2011, dated 2019).
Where “and” joins values, the source holds several entries; their conditions need not be identical. Identical values can stand only once.

How the values were obtained:
[1] = Intratumor concentration of doxorubicin after systemic administration; assay type: in vivo; conditions: systemic 8 mg/kg, BT474 bearing mice
Description: (§1) Doxorubicin was administered systemically at 8 mg/kg to BT474 bearing mice. Intratumor concentration of doxorubicin was analyzed by standard immunohistochemical and fluorescence techniques previously described and standard in the art. Doxorubicin was loaded into microwells in the device. The device was implanted in a BT474 tumor as in Example 7. After 20 hours, the device and surrounding tissue was excised and doxorubicin concentration in the surrounding tumor tissue was analyzed.

[2] = tested on: BT474 tumors; test: Implantable device assay: apoptosis (cleaved caspase 3) after device delivery in BT474 tumors; assay type: in vivo, mice; conditions: for apoptotic index (AI): device-delivery, 24 hours post implantation; for increase of apoptosis by addition to microwells preloaded with doxorubicin: 24 hours, vs doxorubicin alone
Description: (§2) Doxorubicin was loaded into a microwell in the implantable device. The device was implanted into tumor tissue. This was repeated for three different murine human cell tumor models (BT474, PC3, A375). After implantation for 20 hours, the device and surrounding tissue was removed, and embedded in acrylic for cross-sectioning and histopathological analysis.
(§3) Fluorescent imaging techniques were used on sample cross-sections to determine the doxorubicin concentration and diffusion profile within the tissue surrounding the device. Standard histopathological techniques, such as but not limited to, immunochemical techniques, can be used to measure a desired characteristic within the surrounding tissue to determine effectiveness of a compound. In this instance, cleaved caspase 3 antibodies were used to detect cells undergoing apoptosis.
(§4) Murine A375, BT474, or PC3 tumor models were used to determine whether the device measurement of local microdose response is a satisfactory predictor of a systemic response in different tumor models. Doxorubicin was placed within the microwells of implantable devices. The devices were implanted into A375, BT474, or PC3 tumors on mice. Apoptosis, as measured by cleaved caspase 3 expression, was used to evaluate drug efficacy at 24 hours post implantation or systemic dosing.
(§5) Sunitinib or lapatinib was loaded into microwells in the implantable device that were preloaded with doxorubicin. The device was then implanted into BT474 tumors. The device and surrounding tissue was removed 24 hours later and apoptosis was evaluated by cleaved caspase 3 expression using standard immunohistochemical assays.

[3] = tested on: A375 tumors; test: Implantable device assay: apoptosis (cleaved caspase 3) after device delivery in A375 tumors; assay type: in vivo, mice
Description: as §2, §3
Efficacy of doxorubicin at different concentration gradients within the tissue was quantified using a two-step analysis. […]
Second, the effect of the drug on a measurable characteristic in each concentration region is determined. In this example, the amount of cells undergoing apoptosis, as determined by cleaved caspase 3 antibody binding, was evaluated in each doxorubicin concentration region. Efficacy of the doxorubicin released from the microwell is determined by antibody staining of tissue sections divided into regions corresponding to local compound exposure.
Varying percentages (1% and 5% by weight) of doxorubicin was dissolved in PEG having a molecular weight of 1000 or 1450. […] After 20 hours, the device and surrounding tissue was removed and analyzed for doxorubicin concentration and cleaved caspase 3 expression, as previously described.
as §4, with “Doxorubicin was placed within the microwells of implantable devices. The devices were implanted into A375, BT474, or PC3 tumors on mice.” left out, “dosing. […]” for “dosing.”

[4] = tested on: MDA-MB231 tumors; test: Implantable device assay: apoptosis (cleaved caspase 3) after device delivery in MDA-MB231 tumors; assay type: in vivo, mice
Description: as §5, with “Lapatinib” for “Sunitinib or lapatinib”, “MDA-MB231” for “BT474”

[5] = tested on: A375 tumors; test: Local tumor apoptosis (cleaved caspase 3) after systemic dosing in A375 tumors; assay type: in vivo, mice; conditions: systemic dosing 8 mg/kg, 24 hours
Description: (§6) To compare the efficacy of device delivered doxorubicin to efficacy achieved with systemic delivery, mice bearing A375 or PC3 tumors were systemically administered an 8 mg/kg dose of doxorubicin. Apoptosis, as measured by cleaved caspase 3 expression, was used to evaluate drug efficacy at 24 hours post implantation or systemic dosing.

[6] = Doxorubicin concentration in tumor tissue surrounding the implanted device (fluorescent imaging); assay type: in vivo, mice; conditions: mouse, pure doxorubicin in microwell, 20 hours post implantation
Excerpt: as §3
Varying percentages (1% and 5% by weight) of doxorubicin was dissolved in PEG having a molecular weight of 1000 or 1450. Pure powder doxorubicin and the PEG-doxorubicin formulations were loaded into microwells in the device. The device was implanted into tumors. After 20 hours, the device and surrounding tissue was removed and analyzed for doxorubicin concentration and cleaved caspase 3 expression, as previously described.
Microwells were loaded with pure doxorubicin and the device was implanted into tumor tissue. The device and surrounding tissue was removed at varying times post-implantation. The concentration of doxorubicin in the surrounding tissue was evaluated using immunohistochemical techniques and fluorescent imaging.
as §1

[7] = tested on: PC3 tumors; test: Local tumor apoptosis (cleaved caspase 3) after systemic dosing in PC3 tumors; assay type: in vivo, mice; conditions: systemic dosing 8 mg/kg, 24 hours
Description: as §6

[8] = tested on: Ki67; test: Ki67 protein expression by immunohistochemistry around device in BT474 tumor; assay type: in vivo; conditions: 20 hour exposure, region closest to the microwell
Description: (§7) Doxorubicin was loaded into microwells in the device and implanted within a BT474 tumor. After 20 hours, the device and surrounding tissue was removed. Protein expression of cleaved caspase 3 and Poly(ADP-ribose) polymerase (PARP) was evaluated by immunohistochemical analysis. These biomarkers are indicators of apoptosis. Protein expression of Ki67 and survivin was evaluated by immunohistochemical analysis. Ki67 is a biomarker for monitoring reduced cell proliferation rates. Survivin is a biomarker for monitoring reduced inhibition of apoptosis.
(§8) Effect of 20 hour doxorubicin exposure on the expression of the biomarkers was determined as described in Example 4. However, here four concentration gradient regions of approximately 100 μm were determined and evaluated.

[9] = tested on: survivin; test: Survivin protein expression by immunohistochemistry around device in BT474 tumor; assay type: in vivo; conditions: 20 hour exposure, region closest to the microwell
Description: as §7, §8

[10] = tested on: PC3 tumors; test: Implantable device assay: apoptosis (cleaved caspase 3) after device delivery in PC3 tumors; assay type: in vivo, mice; conditions: for apoptotic index (AI): device-delivery, 24 hours post implantation
Description: as §2, §3, §4
The implantable device assay was tested in murine tumor models (A375 and PC3) for its ability to predict the response of tumors to several other cytotoxic and targeted anti-cancer agents. Vemurafenib is an enzyme inhibitor that specifically targets the BRAF V600E mutation. A375 tumors have this mutation. […] Response to vemurafenib was measured by intratumor apoptotic response using the implantable device assay.
as §5, with “Sunitinib” for “Sunitinib or lapatinib”, “PC3” for “BT474”

[11] = device-delivery, single agent, MDA-MB231 tumors

With COc1cccc2c1C(=O)c1c(O)c3c(c(O)c1C2=O)C[C@@](O)(C(=O)CO)C[C@@H]3O[C@H]1C[C@H](N)[C@H](O)[C@H](C)O1 [doxorubicin] the “intratumor doxorubicin concentration, areas of high concentration” value [1] was 8 to 13 mg/kg, the “intratumor doxorubicin concentration, areas of low concentration” value [1] was 3 to 7 mg/kg and the “apoptotic index (AI)” value [2] was 18%. For the same molecule, the “number of cleaved caspase 3 positive cells as percent area of DAB staining” value ([3]; 20 hours, A375 compared with BT474 and PC3, approximately 100-250 μm from the microwell) was “greatest number of cells to undergo apoptosis”, the “apoptotic index (AI)” value ([3]; device-delivery, A375 tumors, 24 hours post implantation) was 55% and the “apoptotic index (AI)” value [4, 11] was 7.4%. The “local tumor apoptosis, apoptotic index (AI)” value [5] was 34.9%, the concentration at 20 h ([6]; 0-130 μm from the microwell) was 15000 to 20000 ng/g and the concentration at 20 h ([6]; approximately 130-200 μm from the microwell) was 8000 to 13000 ng/g. The concentration at 20 h ([6]; approximately 200-300 μm from the microwell) was 3000 to 7000 ng/g, the “local tumor apoptosis, apoptotic index (AI)” value [7] was 8.7% and the Ki67 expression [8] was “undetectable levels”. For the same molecule, the Survivin expression [9] was “undetectable” and the “apoptotic index (AI)” value [10] was 6%.

With Nc1ccn([C@@H]2O[C@H](CO)[C@@H](O)C2(F)F)c(=O)n1 [gemcitabine] the “apoptotic index (AI)” value [2] was 2.0% and 2.6%, the “apoptotic index (AI)” value [4, 11] was 21.8% and the “apoptotic index (AI)” value [10] was 12.5%.

With CS(=O)(=O)CCNCc1ccc(-c2ccc3ncnc(Nc4ccc(OCc5cccc(F)c5)c(Cl)c4)c3c2)o1 [lapatinib] the “increase of apoptosis by addition to microwells preloaded with doxorubicin” value (“increase of apoptosis by addition” for short) [2] was 355%, the “elevation of apoptotic response by addition to doxorubicin in the microwells” value ([4]; MDA-MB-231 tumors, 24 hours, vs doxorubicin alone) was 140% and the “apoptotic index (AI)” value ([4]; lapatinib added to doxorubicin in the microwells, MDA-MB-231 tumors, 24 hours) was 17.5%.

With CCN(CC)CCNC(=O)c1c(C)[nH]c(/C=C2\C(=O)Nc3ccc(F)cc32)c1C [sunitinib] the “increase of apoptosis by addition” value [2] was 66% and the “increase of apoptosis by addition” value ([10]; 24 hours, vs doxorubicin alone) was 330%.

With CC[C@@]1(O)C(=O)OCc2c1cc1n(c2=O)Cc2cc3c(CN(C)C)c(O)ccc3nc2-1 [topotecan] the “apoptotic index (AI)” value [2] was 2.2% and the “apoptotic index (AI)” value [10] was 6.3%.

With CCCS(=O)(=O)Nc1ccc(F)c(C(=O)c2c[nH]c3ncc(-c4ccc(Cl)cc4)cc23)c1F [vemurafenib] the “intratumor apoptotic response greater in A375 model as compared to PC3 model” value ([3]; device-delivery, A375 (BRAF V600E) vs PC3) was 250%.
